# Reference: ChEMBL document CHEMBL5729163, “Substituted cyclohexyl compounds as NOP inhibiiors” (2022)
# Biological target: Nociceptin receptor (Homo sapiens, UniProt P41146)
# Assay: Cell-Based NOP Assay: Formula (I) compounds were tested for antagonism of the nociceptin receptor (NOP) in a cell-based cAMP assay, using the LANCE cAMP Detection Kit, Perkin Elmer (Waltham, Mass.). This assay (LANCE cAMP) is a homogeneous, time-resolved fluorescence resonance energy transfer (TR-FRET) immunoassay designed to measure cAMP produced upon modulation of adenylyl cyclase activity by G protein-coupled receptors (GPCRs).ProtocolCells expressing human opioid NOP (ValiScreen cell line, cat #ES-230-C Perkin Elmer (Waltham, Mass.) were dispensed in simulation buffer (5 mM Hepes, 0.1% BSA, 0.5 mM IBMX in Hanks Buffered Saline Solution) at 2.5 μL cells per well (400 cells/well) into a 1536 white TC-treated assay plate. Compound was then added and plates were incubated for 15 minutes at room temperature. To each well was added 2.5 μL of a solution containing forskolin (3 μM final) and nociceptin peptide (390 pM final) diluted in stimulation buffer, and the plates were incubated for 30 minutes at room temperature. To each well was dispensed 5 μL of LANCE Ultra detection (1:300 dilution of anti-cAMP ULight with a 1:100 dilution of Eu-cAMP tracer diluted in cAMP Detection Buffer) reagent, and the plates were incubated for 1 hr at room temperature. The plate was then read on the ViewLux microplate reader (Perkin Elmer, Waltham, Mass.) using the LANCE 1536 protocol with 60 second exposure times and 50 μs delay. This protocol has an excitation wavelength of 340 nm (DUG11 filter) and emission wavelengths of 615 nm (Eu-Donor) and 665 nm (Alexa 647 cAMP antibody acceptor).Data AnalysisData was analyzed, normalized, and visualized using ACAS (John McNeil & Co.). Efficacy was calculated using activity of the vehicle (DMSO) as 0% efficacy and the activity of the corresponding reference positive control (SCH 221510, Tocris Bioscience (Pittsburgh, Pa.), Catalog number 3240) as 100% efficacy. Activity was calculated as the ratio of donor and acceptor emissions. All curve fits and IC50 determinations were performed using a non-linear regression model. The IC50 value was measured as the concentration at which half-maximal response was calculated.
# Nociceptin receptor, sequence (P41146 whole entry): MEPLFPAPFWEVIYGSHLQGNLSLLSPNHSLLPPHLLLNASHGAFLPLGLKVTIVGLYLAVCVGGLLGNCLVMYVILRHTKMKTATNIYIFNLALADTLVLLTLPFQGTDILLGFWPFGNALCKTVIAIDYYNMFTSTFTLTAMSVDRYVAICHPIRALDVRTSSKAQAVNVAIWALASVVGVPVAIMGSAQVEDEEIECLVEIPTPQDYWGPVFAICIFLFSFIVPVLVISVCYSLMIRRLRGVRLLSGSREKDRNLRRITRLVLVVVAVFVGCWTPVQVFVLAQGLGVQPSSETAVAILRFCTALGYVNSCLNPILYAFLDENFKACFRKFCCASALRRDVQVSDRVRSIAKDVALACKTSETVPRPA
row,Structure (SMILES),IC50 [nM]
1,CNC(=O)C1(NCCC2CCC(c3ccc(Cl)cc3F)CC2)CCCC1 (configuration not stated),100 to 1000
2,COCC1(NCC[C@H]2CC[C@H](c3ncc(F)cc3Cl)CC2)CCOCC1,100 to 1000
3,NC(=O)C1(NCC[C@H]2CC[C@H](c3cccc(F)c3Cl)CC2)CCOCC1,100 to 1000
4,NC(=O)C1(NCC[C@H]2CC[C@@H](c3cccc(F)c3Cl)CC2)CCOCC1,100 to 1000
5,Cc1cccnc1C1CCC(CCNC2(C)CCOCC2)CC1 (configuration not stated),100 to 1000
6,NC(=O)C1(NCC[C@H]2CC[C@@H](c3ccc(F)cc3Cl)CC2)CCCOC1 (some centres not stated),100 to 1000
7,NC(=O)C1(NCCC2CCC(c3ccc(F)cc3F)CC2)CCCC1 (configuration not stated),100 to 1000
8,CC1(NCC[C@H]2CC[C@@H](c3ncc(F)cc3Cl)CC2)CCNC(=O)C1 (some centres not stated),100 to 1000
9,CC1(NCCC2CCC(c3ccccc3Cl)CC2)CCOCC1 (configuration not stated),100 to 1000
10,CC(=O)N1CCC(NCCC2CCC(c3ccc(F)cc3C)CC2)CC1 (configuration not stated),100 to 1000
11,NC(=O)C1(NCC[C@H]2CC[C@H](c3ccc(F)cc3F)CC2)CCOCC1,100 to 1000
12,Fc1ccc(Cl)c(C2CCC(CCNC3CCCCC3)CC2)c1 (configuration not stated),100 to 1000
13,Fc1cnc([C@H]2CC[C@@H](CCNC3CCOCC3)CC2)nc1,100 to 1000
14,CC1(NCCC2CCC(c3ncc(F)cc3Cl)CC2)CCOCC1 (configuration not stated),100 to 1000
15,CN1CCC(NCCC2CCC(c3c(F)cccc3Cl)CC2)CC1 (configuration not stated),100 to 1000
16,NC(=O)C1(NCCC2CCC(c3ccccc3Cl)CC2)CCCC1 (configuration not stated),100 to 1000
17,Cc1c(C#N)cccc1[C@H]1CC[C@H](CCNC2CCOCC2)CC1,100 to 1000
18,CC1(NCCC2CCC(c3ncccc3Cl)CC2)CCOCC1 (configuration not stated),100 to 1000
19,NC(=O)C1(NCC[C@H]2CC[C@@H](c3ncccc3Cl)CC2)CCOCC1,100 to 1000

row,Structure (SMILES),IC50 [nM]
1,Cc1ccncc1[C@H]1CC[C@@H](CCNC2CCOCC2)CC1,100 to 1000
2,CC(=O)N1CCC(NCCC2CCC(c3ccc(Cl)cc3F)CC2)CC1 (configuration not stated),100 to 1000
3,CC1(NCCC2CCC(c3cc(F)ccc3Cl)CC2)CCCC1 (configuration not stated),100 to 1000
4,Cc1cccnc1[C@H]1CC[C@H](CCNC2CCOCC2)CC1,100 to 1000
5,Cc1cnccc1C1CCC(CCNC2CCOCC2)CC1 (configuration not stated),100 to 1000
6,NC(=O)N1CCC(NCCC2CCC(c3ncc(F)cc3Cl)CC2)CC1 (configuration not stated),100 to 1000
7,Cc1cccnc1C1CCC(CCNC2(C)CCCC2)CC1 (configuration not stated),100 to 1000
8,Cc1cnccc1[C@H]1CC[C@H](CCNC2CCOCC2)CC1,100 to 1000
9,Cc1cnccc1C1CCC(CCNC2CCCCC2)CC1 (configuration not stated),100 to 1000
10,Oc1cccc([C@H]2CC[C@H](CCNC3CCOCC3)CC2)c1,100 to 1000
11,Cc1cnccc1[C@H]1CC[C@@H](CCNC2CCOCC2)CC1,100 to 1000
12,Cc1cc(F)ccc1C1CCC(CCNC2(C)CCOCC2)CC1 (configuration not stated),100 to 1000
13,CN1CCC(NCCC2CCC(c3cc(F)ccc3Cl)CC2)CC1 (configuration not stated),100 to 1000
14,NC(=O)C1(NCC[C@H]2CC[C@@H](c3ccc(F)cc3Cl)CC2)CCOC1 (some centres not stated),100 to 1000
15,Cc1cccnc1C1CCC(CCNC2CCCC2)CC1 (configuration not stated),100 to 1000
16,NC(=O)C1(NCCC2CCC(c3cc(F)ccc3Cl)CC2)CCCC1 (configuration not stated),100 to 1000
17,Cc1cccnc1C1CCC(CCNC2CCCCC2)CC1 (configuration not stated),100 to 1000
18,O=C1C[C@@H](NCC[C@H]2CC[C@H](c3ncc(F)cc3Cl)CC2)CCN1,100 to 1000

# Next, values leading:
row,IC50 [nM],Structure (SMILES)
1,100 to 1000,COCC1(NCCC2CCC(c3cnccc3C)CC2)CCOCC1 (configuration not stated)
2,100 to 1000,CN1CCC(NCCC2CCC(c3ccc(Cl)cc3F)CC2)CC1 (configuration not stated)
3,100 to 1000,CC1(NCCC2CCC(c3ccccc3Cl)CC2)CCCC1 (configuration not stated)
4,100 to 1000,CC1(NCCC2CCC(c3ccc(F)cc3F)CC2)CCCC1 (configuration not stated)
5,100 to 1000,Oc1cccc([C@H]2CC[C@@H](CCNC3CCOCC3)CC2)c1
6,10 to 100,CS(=O)(=O)N1CCC(NCC[C@H]2CC[C@@H](c3ccc(F)cc3Cl)CC2)CC1
7,100 to 1000,Cc1ccncc1[C@H]1CC[C@H](CCNC2CCOCC2)CC1
8,100 to 1000,Cc1cc(F)ccc1C1CCC(CCNC2CCCCC2)CC1 (configuration not stated)
9,100 to 1000,O=C(NCC1CC1)C1(NCC[C@H]2CC[C@@H](c3ccc(F)cc3Cl)CC2)CCCC1
10,10 to 100,Cc1cc(F)ccc1C1CCC(CCNC2(C)CCCC2)CC1 (configuration not stated)
11,100 to 1000,NC(=O)C1(NCC[C@H]2CC[C@@H](c3c(F)cc(F)cc3F)CC2)CCOCC1
12,100 to 1000,Cc1nccnc1[C@H]1CC[C@@H](CCNC2CCOCC2)CC1
13,100 to 1000,NC(=O)C1(NCC[C@H]2CC[C@H](c3ncccc3Cl)CC2)CCOCC1
14,100 to 1000,Clc1cccnc1C1CCC(CCNC2CCCCC2)CC1 (configuration not stated)
15,10 to 100,COCC1(NCCC2CCC(c3ccc(F)cc3F)CC2)CCOCC1 (configuration not stated)
16,10 to 100,Fc1ccc(C2CCC(CCNC3CCCCC3)CC2)c(F)c1 (configuration not stated)
17,100 to 1000,CN(C)C(=O)C1(NCC[C@H]2CC[C@@H](c3ccc(F)cc3Cl)CC2)CCCC1
18,100 to 1000,Cc1cc(F)c(F)cc1[C@H]1CC[C@H](CCNC2(C(N)=O)CCOCC2)CC1
19,10 to 100,CN1CCC(NCC[C@H]2CC[C@@H](c3ccc(F)cc3Cl)CC2)CC1=O (some centres not stated)
20,100 to 1000,Cc1c(C#N)cccc1[C@H]1CC[C@@H](CCNC2CCOCC2)CC1

row,IC50 [nM],Structure (SMILES)
1,10 to 100,Cc1cc(F)c(F)cc1[C@H]1CC[C@H](CCN[C@@H]2CCNC(=O)C2)CC1
2,100 to 1000,CNC(=O)C1(NCCC2CCC(c3ncccc3Cl)CC2)CCCC1 (configuration not stated)
3,10 to 100,Fc1cccc(C2CCC(CCNC3CCCCC3)CC2)c1Cl (configuration not stated)
4,100 to 1000,CN1CCC(NCCC2CCC(c3ncc(F)cc3Cl)CC2)CC1 (configuration not stated)
5,100 to 1000,COCC1(NCCC2CCC(c3ncc(F)cc3Cl)CC2)CCOCC1 (configuration not stated)
6,100 to 1000,COCC1(NCCC2CCC(c3cccc(F)c3Cl)CC2)CCOCC1 (configuration not stated)
7,10 to 100,COCC1(NCCC2CCC(c3c(F)cccc3Cl)CC2)CCOCC1 (configuration not stated)
8,100 to 1000,CC1(NCCC2CCC(c3ncccc3Cl)CC2)CCCC1 (configuration not stated)
9,10 to 100,CNC(=O)C1(NCCC2CCC(c3ncc(F)cc3Cl)CC2)CCCC1 (configuration not stated)
10,10 to 100,CC1(NCC[C@H]2CC[C@H](c3ncc(F)cc3Cl)CC2)CCNC(=O)C1 (some centres not stated)
11,10 to 100,CC1(NCCC2CCC(c3c(F)cccc3Cl)CC2)CCCC1 (configuration not stated)
12,10 to 100,COCC1(NCCC2CCC(c3cc(F)ccc3Cl)CC2)CCOCC1 (configuration not stated)
13,10 to 100,CC(=O)N1CCC(NCC[C@H]2CC[C@@H](c3ccc(F)cc3Cl)CC2)C1 (some centres not stated)
14,10 to 100,COCC1(NCC[C@H]2CC[C@@H](c3ccc(F)cc3Cl)CC2)CCNC(=O)C1 (some centres not stated)
15,10 to 100,CC1(NCC[C@H]2CC[C@@H](c3ccc(F)cc3Cl)CC2)CCNC(=O)C1 (some centres not stated)
16,10 to 100,COCC1(NCCC2CCC(c3ccccc3Cl)CC2)CCOCC1 (configuration not stated)
17,10 to 100,CC(=O)N1CCC(NCC[C@H]2CC[C@@H](c3ccc(F)cc3Cl)CC2)CC1
18,10 to 100,CC1(NCCC2CCC(c3ncc(F)cc3Cl)CC2)CCCC1 (configuration not stated)
19,10 to 100,O=C1C[C@@H](NCC[C@H]2CC[C@@H](c3ncc(F)cc3Cl)CC2)CCN1
20,< 1,Fc1ccc(C2CCC(CCNC3CCOCC3)CC2)c(Cl)c1 (mixture of isomers)
